Source: paper PMC8508960, “Ruthenium Half-Sandwich Type Complexes with Bidentate Monosaccharide Ligands Show Antineoplastic Activity in Ovarian Cancer Cell Models through Reactive Oxygen Species Production” (International Journal of Molecular Sciences, 2021)
Several values for one entry are separate records, joined by “and”; a condition that tells them apart may be missing. Identical values can stand only once. Entries after “also recorded” stand apart in the source; their conditions may differ.

Key:
A2780 cells [1] = test: SRB assay on A2780 cells with antioxidant cotreatment (GSH, NAC, MitoTEMPO, vitamin E, Trolox); assay type: cell-based, human; settings: 48 h
Experimental: (§1) The SRB accumulation assay assesses protein content in a sample, and it was used to assess cell proliferation. The SRB accumulation assay was performed similarly to [68]. Cells were seeded in 96-well plates. The next day, cells were treated with the compounds for 48 h in the concentrations indicated in a cell incubator. At the end of treatment, cells were fixed with 10% trichloroacetic acid (TCA). Fixed cells were stained with SRB (0.4% m/v dissolved in 1% acetic acid) for 60 min. Fixed cells were washed in 1% acetic acid three times; acetic acid was removed, and cells were left to dry. Protein-bound SRB was released by adding 100 µL of 10 mM Tris base. Plates were measured in a plate photometer (Thermo Scientific Multiscan GO spectrophotometer, Waltham, MA, USA) at 540 nm. On each plate, wells were designed to contain untreated cells. In calculations, the readings for these wells were considered as 1, and all readings were expressed relative to these values.

ID8 cells [2] = test: SRB proliferation assay (48 h) on ID8 cells; assay type: cell-based; settings: for cytostatic activity in long-term SRB assay (in words): ID8 cells; for IC50 / ID8 Hill Slope: SRB, nonlinear regression, N/A = could not be calculated/had no effect
Experimental: (§2) Cells were cultured under standard cell culture conditions, 37 °C, 5% CO2, humidified atmosphere. A2780 cells were cultured in RMPI 1640 medium supplemented with 10% fetal calf serum, 2 mM glutamine, and 1% penicillin–streptomycin (Sigma-Aldrich). ID8 cells were cultured in high-glucose DMEM (4.5 g/L glucose) supplemented with 4% fetal calf serum, 2 mM glutamine, 1% penicillin–streptomycin (Sigma-Aldrich), and 1% ITS supplement (Sigma-Aldrich I3146). U251 cells were maintained in MEM (Sigma-Aldrich), 10% fetal bovine serum (Sigma-Aldrich), 1% penicillin/streptomycin (Invitrogene), and 2 mM glutamine. MCF7 cells were maintained in MEM (Sigma-Aldrich), 10% fetal bovine serum (Sigma-Aldrich), 1% penicillin/streptomycin (Invitrogen, Waltham, MA, USA), and 2 mM glutamine. Capan2 cells were maintained in MEM (Sigma-Aldrich), 10% fetal bovine serum (Sigma-Aldrich), 1% penicillin/streptomycin (Invitrogen), and 2 mM glutamine. Human primary dermal fibroblasts were cultured in low-glucose DMEM (1 g/L glucose) supplemented with 20% fetal calf serum, 2 mM glutamine, and 1% penicillin–streptomycin (Sigma-Aldrich).
as §1
(§3) Statistical analysis was performed using Graphpad Prism version 8.0.1. Values were tested for normal distribution using the D’Agostino and Pearson normality test. When necessary, values were log-normalized or were normalized using the Box–Cox normalization method, as indicated in the figure captions. Nonlinear regression was performed using the built-in “[Inhibitor] vs. response—variable slope (four parameters), least square fit” utility of Graphpad that yielded IC50 and Hill slope values.

[3] = test system: human primary skin fibroblasts; test: MTT reduction assay (4 h, rapid toxicity) on primary fibroblasts; assay type: cell-based
Experimental: as §2
(§4) The MTT reduction assay assesses the activity of mitochondrial complex I, and it was used to assess rapid toxicity. The MTT reduction assay was performed similarly to [67]. Cells were seeded in 96-well plates. The next day, cells were treated with the compounds for 4 h in the concentrations indicated in a cell incubator. At the end of treatment, MTT was added in 0.5 mg/mL final concentration, and cells were incubated at 37 °C in a cell incubator. Then, culture media was removed, the reduced MTT dye was resolved in dimethyl sulfoxide (DMSO), and plates were measured in a plate photometer (Thermo Scientific Multiscan GO spectrophotometer, Waltham, MA, USA) at 540 nm. On each plate, wells were designed to contain untreated/vehicle-treated cells. In calculations, the readings for these wells were considered as 1, and all readings were expressed relative to these values.

[4] = test system: A2780 human ovarian carcinoma cells; test: MTT reduction assay (4 h, rapid toxicity) on A2780 cells; assay type: cell-based; settings: for effect on MTT signal above 10 µM: above 10 µM concentration
Experimental: as §2, §4

[5] = test system: Capan2 (pancreatic adenocarcinoma); test: SRB proliferation assay (48 h) on Capan2 cells; assay type: cell-based; settings: nonlinear regression
Experimental: as §2, §1, §3

A2780 cells [6] = test: SRB assay on A2780 cells with or without 3 µM rucaparib; assay type: cell-based, human; settings: 48 h, vehicle (no rucaparib)
Experimental: as §1, §3

A2780 cells [7] = test: Annexin V-FITC, PI double staining (flow cytometry); assay type: cell-based, human; settings: concentration corresponding to IC50, 2 h, 4 h or 48 h
Experimental: Annexin V–PI double staining was applied to assess apoptotic and necrotic cell death similar to [37, 38, 69]. A2780 cells were treated with the indicated compounds at the concentration corresponding to their IC50 value for 2, 4, and 48 h. The 4 and 48 h time points correspond to the time points for the MTT and SRB assays, while the 2 h time point reflects the optimum time point for the detection of apoptotic or necrotic cell death. Quadrants were set on the basis of the FITC and PI values observed for the vehicle-treated cells.

[8] = test system: MCF7 cells (breast cancer); test: SRB proliferation assay (48 h) on MCF7 cells; assay type: cell-based; settings: nonlinear regression
Experimental: as §2, §1, §3

[9] = test system: human primary skin fibroblasts; test: SRB proliferation assay (48 h) on primary fibroblasts; assay type: cell-based; settings: for effect on SRB signal at 100 µM / effect in long-term SRB assay (in words): primary human fibroblasts
Experimental: as §2, §1, §3

[10] = test system: A2780 human ovarian carcinoma cells; test: SRB proliferation assay (48 h) on A2780 cells; assay type: cell-based; settings: for cytostatic activity in long-term SRB assay (in words): A2780 cells, 100–0.0017 µM; for Hill slope (span over cell lines): SRB curves, A2780 and ID8 cells; for A2780 Hill Slope / IC50: SRB, nonlinear regression, N/A = could not be calculated/had no effect
Experimental: as §2, §1, §3

A2780 cells [11] = test: Western blotting of 4-hydroxy-nonenal (4HNE), oxidative stress marker; assay type: cell-based, human; settings: concentration corresponding to IC50, 48 h
Experimental: The preparation of protein extracts, the separation of protein extracts in SDS-polyacrylamide gel electrophoresis, and the subsequent Western blotting were performed as described in [70] using the antibodies in Table 4. Enhanced chemiluminescence was developed using ChemiDoc Imager, (Bio-Rad, Hercules, CA, USA). Densitometry was performed using Image Lab Touch Software, Bio-Rad, Hercules, CA, USA).

[12] = test system: U251 cells (glioblastoma model); test: SRB proliferation assay (48 h) on U251 cells; assay type: cell-based; settings: nonlinear regression
Experimental: as §2, §1, §3

[13] = Determination of the distribution coefficients (logD), n-octanol/PBS; assay type: physicochemical; settings: n-octanol / PBS pH = 7.40
Experimental: Prior to the experiments, n-octanol was saturated with aqueous PBS solution (pH = 7.40) and vice versa. The corresponding complex (approximately 0.2–0.3 mg) was dissolved in a mixture of 2.50 mL of pre-saturated n-octanol and 2.50 mL of pre-saturated PBS buffer, and the mixture was vigorously stirred for 3 days. According to the NMR stability measurements, this time was necessary to reach equilibrium between the various ionic complex species. Due to the lipophilic/hydrophilic character of the complexes, those with benzoyl protection or the non-sugar derivative could mostly be found in the n-octanol, while the acetyl and non-protected complexes could be found in the aqueous PBS phase. The appropriate separated solution was centrifuged (ScanSpeed 406G instrument, 4000 RPM for 5 min), and the absorption of the “stock solution” was measured (VWR UV-1600PC Spectrophotometer, 270–420 nm). Then 2.00 mL of stock solution was stirred vigorously with 16.00 mL of pre-saturated, clean n-octanol or PBS solution. After 1 day, the phases were separated and centrifuged, and the absorption of the solution was measured again. From the absorption difference of the stock solutions, the distribution coefficient (D) was calculated according to the previously described formulae [66].

ID8 cells [14] = test: MTT reduction assay (4 h, rapid toxicity) on ID8 cells; assay type: cell-based; settings: for effect on MTT signal above 10 µM: above 10 µM concentration
Experimental: as §2, §4

[15] = SRB, nonlinear regression, N/A = could not be calculated/had no effect

SMILES | effect of GSH and NAC cotreatment on the cytostatic effects of the complex (A2780 cells [1]) | effect of MitoTEMPO on the cytostatic effects of the complex (A2780 cells [1]) | cytostatic activity in long-term SRB assay (in words) (ID8 cells [2]) | IC50 (ID8 cells [2]) | ID8 Hill Slope (ID8 cells [2]) | effect in short-term MTT assay, rapid toxicity (in words) [3] | effect in short-term MTT assay, rapid toxicity (in words) [4] | Capan2 Hill Slope [5] | IC50 [5] [µM] | IC50 (A2780 cells [6]) [µM] | proportions of PI-positive, annexin V-positive and double-positive cells (A2780 cells [7]) | IC50 [8] [µM] | MCF7 Hill Slope [8] | cytostatic activity in long-term SRB assay (in words) [10] | Hill slope (span over cell lines) [10] | A2780 Hill Slope [10] | IC50 [10] [µM] | expression of oxidative stress marker 4-hydroxy-nonenal (4HNE) (A2780 cells [11]) | IC50 [12] [µM] | U251 Hill Slope [12] | further results
Cc1ccc(C(C)C)cc1.F[P-](F)(F)(F)(F)F.O=C(OCC1OC(n2cc(-c3ccccn3)nn2)C(OC(=O)c2ccccc2)C(OC(=O)c2ccccc2)C1OC(=O)c1ccccc1)c1ccccc1.[Cl][Ru+] (mixture of isomers) [Ru-2a] | attenuated the cytostatic effects | did not modulate the effects | cytostatic | 1.5 µM and 1.53 µM | 2.50 | no effect | cytostatic properties | 2.43 | 2.18 | 1.38 | did not largely increase | 1.29 | 1.85 | cytostatic properties | 2–3 | 1.95 | 0.9 | increase in the expression | 2.82 | 1.75 | effect on MTT signal above 10 µM [4]: reduced the MTT signal; Fibroblast Hill Slope [9, 15]: 0.78; effect on SRB signal at 100 µM [9]: reduced the SRB signal; logD [13]: 2.85; effect on MTT signal above 10 µM (ID8 cells [14]): reduced the MTT signal
Cc1ccc(C(C)C)cc1.F[P-](F)(F)(F)(F)F.O=C(OCC1OC(c2n[n+]3c(o2)-c2cccc[n+]2[Ru-]3[Cl])C(OC(=O)c2ccccc2)C(OC(=O)c2ccccc2)C1OC(=O)c1ccccc1)c1ccccc1 (mixture of isomers) [Ru-4] | attenuated the cytostatic effects | did not modulate the effects | cytostatic | 5.66 µM | 3.04 | no effect | cytostatic properties | 1.81 | 3.27 | 6.18 | did not largely increase | 3.74 | 2.01 | cytostatic properties | 2–3 | 2.62 | 6.19 | increase in the expression | 4.17 | 2.46 | effect in long-term SRB assay (in words) [9]: no effect; also recorded: no activity; logD [13]: 2.41
Cc1ccc(C(C)C)cc1.F[P-](F)(F)(F)(F)F.O=C(OC1COC(c2n[n+]3c(o2)-c2cccc[n+]2[Ru-]3[Cl])C(OC(=O)c2ccccc2)C1OC(=O)c1ccccc1)c1ccccc1 (mixture of isomers) [Ru-6] | attenuated the cytostatic effects | did not modulate the effects | cytostatic | 6.76 µM | 3.59 | no effect | cytostatic properties | 1.66 | 4.97 | 6.83 | did not largely increase | 6.69 | 2.13 | cytostatic properties | 2–3 | 3.74 | 8.54 | increase in the expression | 6.61 | 2.13 | Fibroblast Hill Slope [9, 15]: 3.52; IC50 ([9]; SRB, nonlinear regression, N/A = could not be calculated/had no effect, read-out: Fibroblast IC50): 24.6 µM; effect on SRB signal at 100 µM [9]: reduced the SRB signal; logD [13]: 2.04; effect on MTT signal at 100 µM (ID8 cells [14]; 100 µM, Ru-4: not statistically significant): reduced the MTT signal
Cc1ccc(C(C)C)cc1.F[P-](F)(F)(F)(F)F.O=C(OCC1OC(c2nnc(-c3ccccn3)o2)C(OC(=O)c2ccccc2)C(OC(=O)c2ccccc2)C1OC(=O)c1ccccc1)c1ccccc1.[Cl][Ru+] (mixture of isomers) [Ru-8] | attenuated the cytostatic effects | did not modulate the effects | cytostatic | 7.94 µM | 3.31 | no effect | cytostatic properties | 1.66 | 3.82 | 4.17 | did not largely increase | 3.75 | 2.06 | cytostatic properties | 2–3 | 3.50 | 4.27 | increase in the expression | 4.49 | 2.50 | effect on MTT signal above 10 µM [4]: reduced the MTT signal; effect in long-term SRB assay (in words) [9]: no effect; logD [13]: 2.44; effect on MTT signal above 10 µM (ID8 cells [14]): reduced the MTT signal
